Laboratory results published in patent US10875876B2, “Cyclized sulfamoylarylamide derivatives and the use thereof as medicaments for the treatment of hepatitis B” (priority 2015, dated 2020).
Like-named read-outs stand apart in the source and are kept apart here. Each block holds one molecule with its values, some of them ahead of it.

Tests used:
HBV = assay: anti HBV activity, HepG2.117 cell line, intracellular HBV DNA by realtime PCR; format: cell-based; settings: HepG2.117 cell line (Tet-off), 3 days of treatment, intracellular HBV DNA quantified by realtime PCR, read-out: HBV-AVE-HepG2.117 EC50
In short: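 Readout was intracellular HBV DNA by real-time PCR (HBV-specific primers and probe) after 3 days of compound exposure. Serial dilutions were tested in duplicate on HepG2.117 cells, a stable inducible HBV producer in which replication is switched on when doxycycline is absent.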

[1] = Cytotoxicity in HepG2 cells, Resazurin assay; settings: human, HepG2 cells, TOX-HepG2-4 d CC50 (μM), HepG2 cells incubated for 4 days, viability by Resazurin assay
[2] = Hepatitis B virus, HepG2.117, 72 h

Structure (SMILES): C[C@H](O)[C@H]1C=Cc2c(cn(C)c2C(=O)Nc2ccc(F)c(Cl)c2)S(=O)(=O)N1 [Compound 194, (3R)—N-(3-chloro-4-fluoro-phenyl)-3-[(1S)-1-hydroxyethyl]-7-methyl-1,1-dioxo-2,3-dihydropyrrolo[3,4-f]thiazepine-6-carboxamide]
- EC50 (HBV; [2]): 6 nM
- melting point: 211.3 °C
- CC50 at 4 days [1]: > 25 µM

Structure (SMILES): Cn1ccc(C2(C)COc3c(cn(C)c3C(=O)Nc3ccc(F)c(F)c3)S(=O)(=O)N2)n1 (single isomer, unassigned) [Compound 192a, N-(3,4-difluorophenyl)-3,7-dimethyl-3-(1-methylpyrazol-3-yl)-1,1-dioxo-2,4-dihydropyrrolo[3,4-b][1,4,5]oxathiazepine-6-carboxamide]
- EC50 (HBV; [2]): 36 nM
- melting point: 208.7 °C
- CC50 at 4 days [1]: > 25 µM

Structure (SMILES): Cn1cc2c(c1C(=O)Nc1ccc(F)c(F)c1)OC[C@@H](C(C)(C)O)NS2(=O)=O [Compound 94, (3S)—N-(3,4-difluorophenyl)-3-(1-hydroxy-1-methyl-ethyl)-7-methyl-1,1-dioxo-3,4-dihydro-2H-pyrrolo[3,4-b][1,4,5]oxathiazepine-6-carboxamide]
- EC50 (HBV; [2]): 80 nM
- melting point: 234.1 °C
- CC50 at 4 days [1]: > 25 µM

Structure (SMILES): Cc1cccc(C2(C)COc3c(cn(C)c3C(=O)Nc3ccc(F)c(C(F)F)c3)S(=O)(=O)N2)n1 (racemic) [Compound 177, N-[3-(difluoromethyl)-4-fluoro-phenyl]-3,7-dimethyl-3-(6-methyl-2-pyridyl)-1,1-dioxo-2,4-dihydropyrrolo[3,4-b][1,4,5]oxathiazepine-6-carboxamide]
- EC50 (HBV; [2]): 8 nM
- melting point: 210.2 °C
- CC50 at 4 days [1]: > 25 µM

Structure (SMILES): CCC(O)[C@@H]1COc2c(cn(C)c2C(=O)Nc2ccc(F)c(C#N)c2)S(=O)(=O)N1 (stereo in doubt) [Compound 163, N-(3-cyano-4-fluoro-phenyl)-3-(1-hydroxypropyl)-7-methyl-1,1-dioxo-3,4-dihydro-2H-pyrrolo[3,4-b][1,4,5]oxathiazepine-6-carboxamide]
- EC50 (HBV; [2]): > 125 nM
- melting point: 247 °C
- CC50 at 4 days [1]: > 25 µM

Structure (SMILES): Cn1cc2c(c1C(=O)Nc1ccc(F)c(Cl)c1)OCC(C)(Cc1cccnc1)NS2(=O)=O (stereo not drawn) [Compound 211, N-(3-chloro-4-fluoro-phenyl)-3,7-dimethyl-1,1-dioxo-3-(3-pyridylmethyl)-2,4-dihydropyrrolo[3,4-b][1,4,5]oxathiazepine-6-carboxamide]
- EC50 (HBV; [2]): 7 nM
- melting point: 211.5 °C
- CC50 at 4 days [1]: > 25 µM

Structure (SMILES): C[C@H]1CCc2c(cn(C)c2C(=O)Nc2ccc(F)c(C#N)c2F)S(=O)(=O)N1 [Compound 157, (3S)—N-(3-cyano-2,4-difluoro-phenyl)-3,7-dimethyl-1,1-dioxo-2,3,4,5-tetrahydropyrrolo[3,4-f]thiazepine-6-carboxamide]
- EC50 (HBV; [2]): 17 nM
- melting point: 247.5 °C
- CC50 at 4 days [1]: > 25 µM

Structure (SMILES): CCC(O)[C@H]1COc2c(cn(C)c2C(=O)Nc2ccc(F)c(C#N)c2)S(=O)(=O)N1 (stereo partly drawn)
- melting point: 252.2 °C

Structure (SMILES): Cn1cc2c(c1C(=O)Nc1ccc(F)c(C#N)c1)OC[C@](C)(c1ccccn1)NS2(=O)=O [Compound 128, (3S)—N-(3-cyano-4-fluoro-phenyl)-3,7-dimethyl-1,1-dioxo-3-(2-pyridyl)-2,4-dihydropyrrolo[3,4-b][1,4,5]oxathiazepine-6-carboxamide]
- EC50 (HBV; [2]): 24 nM
- melting point: 235 °C
- CC50 at 4 days [1]: > 25 µM

Structure (SMILES): Cn1cc2c(c1C(=O)Nc1ccc(F)c(F)c1)CC(O)CNS2(=O)=O (stereo not drawn) [Compound 68, N-(3,4-difluorophenyl)-4-hydroxy-7-methyl-1,1-dioxo-2,3,4,5-tetrahydropyrrolo[3,4-f]thiazepine-6-carboxamide]
- EC50 (HBV; [2]): 230 nM
- melting point: 229 °C
- CC50 at 4 days [1]: > 25 µM

Structure (SMILES): Cn1cc2c(c1C(=O)Nc1ccc(F)c(F)c1)CC[C@@H](C(C)(C)O)NS2(=O)=O [Compound 113, (3S)—N-(3,4-difluorophenyl)-3-(1-hydroxy-1-methyl-ethyl)-7-methyl-1,1-dioxo-2,3,4,5-tetrahydropyrrolo[3,4-f]thiazepine-6-carboxamide]
- EC50 (HBV; [2]): 120 nM
- melting point: 217.7 °C
- CC50 at 4 days [1]: > 25 µM

Structure (SMILES): Cc1cc(NC(=O)c2c3c(cn2C)S(=O)(=O)N[C@@H](C(O)C2CC2)CO3)ccc1F (stereo in doubt)
- melting point: 234.7 °C

Structure (SMILES): Cn1cc2c(c1C(=O)Nc1ccc(F)c(F)c1)C=CC(C(F)(F)F)NS2(=O)=O (stereo not drawn) [Compound 8, N-(3,4-difluorophenyl)-7-methyl-1,1-dioxo-3-(trifluoromethyl)-2,3-dihydropyrrolo[3,4-f]thiazepine-6-carboxamide]
- EC50 (HBV; [2]): 47 nM
- melting point: 245.6 °C
- CC50 at 4 days [1]: > 25 µM

Structure (SMILES): CCC(O)[C@H]1COc2c(cn(C)c2C(=O)Nc2ccc(F)c(C(F)F)c2)S(=O)(=O)N1 (stereo partly drawn)
- melting point: 224.5 °C

Structure (SMILES): CC(NCC(F)(F)F)C1CCc2c(cn(C)c2C(=O)Nc2cc(F)c(F)c(F)c2)S(=O)(=O)N1 (stereo not drawn)
- melting point: 216.2 °C

- melting point: 221.5 °C
Structure (SMILES): Cc1sc2c(c1C(=O)Nc1ccc(F)c(F)c1)OCC(C)NS2(=O)=O (stereo not drawn)

Structure (SMILES): Cn1cc2c(c1C(=O)Nc1ccc(F)c(F)c1)CC[C@H](C(C)(C)O)NS2(=O)=O [Compound 102, (3R)—N-(3,4-difluorophenyl)-3-(1-hydroxy-1-methyl-ethyl)-7-methyl-1,1-dioxo-2,3,4,5-tetrahydropyrrolo[3,4-f]thiazepine-6-carboxamide]
- EC50 (HBV; [2]): 9 nM
- melting point: 218.2 °C
- CC50 at 4 days [1]: > 25 µM

Structure (SMILES): Cn1cc2c(c1C(=O)Nc1ccc(F)c(F)c1)C=CCNS2(=O)=O [Compound 9, N-(3,4-difluorophenyl)-7-methyl-1,1-dioxo-2,3-dihydropyrrolo[3,4-f]-thiazepine-6-carboxamide]
- EC50 (HBV; [2]): 36 nM
- melting point: 221.9 °C
- CC50 at 4 days [1]: > 25 µM

Structure (SMILES): CC(C)C(O)C1COc2c(cn(C)c2C(=O)Nc2ccc(F)c(F)c2)S(=O)(=O)N1 (racemic)
- melting point: 247.3 °C

Structure (SMILES): Cc1cc(NC(=O)c2c3c(cn2C)S(=O)(=O)N[C@@H]([C@H](C)O)CC3)ccc1F [Compound 112, (3R)—N-(4-fluoro-3-methyl-phenyl)-3-[(1S)-1-hydroxyethyl]-7-methyl-1,1-dioxo-2,3,4,5-tetrahydropyrrolo[3,4-f]thiazepine-6-carboxamide]
- EC50 (HBV; [2]): 3 nM
- melting point: 287.3 °C
- CC50 at 4 days [1]: > 25 µM

Structure (SMILES): Cn1cc2c(c1C(=O)Nc1ccc(F)c(C(F)F)c1F)OC[C@H](C(C)(C)O)NS2(=O)=O [Compound 182, (3R)—N-[3-(difluoromethyl)-2,4-difluoro-phenyl]-3-(1-hydroxy-1-methyl-ethyl)-7-methyl-1,1-dioxo-3,4-dihydro-2H-pyrrolo[3,4-b][1,4,5]oxathiazepine-6-carboxamide]
- EC50 (HBV; [2]): 10 nM
- melting point: 182.1 °C
- CC50 at 4 days [1]: > 25 µM

Structure (SMILES): Cn1cc2c(c1C(=O)Nc1ccnc(Cl)c1)OC[C@H](C(C)(C)O)NS2(=O)=O [Compound 146, (3R)—N-(2-chloro-4-pyridyl)-3-(1-hydroxy-1-methyl-ethyl)-7-methyl-1,1-dioxo-3,4-dihydro-2H-pyrrolo[3,4-b][1,4,5]oxathiazepine-6-carboxamide]
- EC50 (HBV; [2]): 55 nM
- melting point: 246.6 °C
- CC50 at 4 days [1]: > 25 µM

Structure (SMILES): Cn1cc2c(c1C(=O)Nc1ccc(F)c(C(F)F)c1)OC[C@H](C(O)C1CC1)NS2(=O)=O (stereo partly drawn)
- melting point: 240.7 °C

Structure (SMILES): Cn1cc2c(c1C(=O)Nc1ccnc(C(F)F)c1)OCC(C)(C)NS2(=O)=O [Compound 158, N-[2-(difluoromethyl)-4-pyridyl]-3,3,7-trimethyl-1,1-dioxo-2,4-dihydropyrrolo[3,4-b][1,4,5]oxathiazepine-6-carboxamide]
- EC50 (HBV; [2]): 31 nM
- melting point: 229.9 °C
- CC50 at 4 days [1]: > 25 µM

Structure (SMILES): Cn1cc2c(c1C(=O)Nc1ccc(F)c(F)c1)OCC(C)(c1ncccn1)NS2(=O)=O (single isomer, unassigned) [Compound 153a, N-(3,4-difluorophenyl)-3,7-dimethyl-1,1-dioxo-3-pyrimidin-2-yl-2,4-dihydropyrrolo[3,4-b][1,4,5]oxathiazepine-6-carboxamide]
- EC50 (HBV): > 125 nM
- melting point: 228.3 °C
- CC50 at 4 days [1]: > 25 µM

Structure (SMILES): C[C@H]1CCc2c(cn(C)c2C(=O)Nc2ccc(F)c(C(F)F)c2F)S(=O)(=O)N1 [Compound 164, (3S)—N-[3-(difluoromethyl)-2,4-difluoro-phenyl]-3,7-dimethyl-1,1-dioxo-2,3,4,5-tetrahydropyrrolo[3,4-f]thiazepine-6-carboxamide]
- EC50 (HBV; [2]): 12 nM
- melting point: 227.7 °C
- CC50 at 4 days [1]: > 25 µM

Structure (SMILES): CCC(O)[C@@H]1COc2c(cn(C)c2C(=O)Nc2ccc(F)c(F)c2)S(=O)(=O)N1 (stereo in doubt)
- melting point: 212.6 °C

- melting point: 281.2 °C
Structure (SMILES): CC(N)[C@H]1CCc2c(cn(C)c2C(=O)Nc2cc(F)c(F)c(F)c2)S(=O)(=O)N1 (stereo in doubt)

Structure (SMILES): CC(C)C(O)C1COc2c(cn(C)c2C(=O)Nc2ccc(F)c(C#N)c2)S(=O)(=O)N1 (racemic)
- melting point: 213.7 °C

Structure (SMILES): Cn1cc2c(c1C(=O)Nc1ccc(F)c(F)c1)OC[C@H](C(O)C1CC1)NS2(=O)=O (stereo partly drawn)
- melting point: 244.8 °C

Structure (SMILES): CCC(O)[C@@H]1COc2c(cn(C)c2C(=O)Nc2ccc(F)c(C(F)F)c2)S(=O)(=O)N1 (stereo in doubt)
- melting point: 224.6 °C

Structure (SMILES): Cn1cc2c(c1C(=O)Nc1ccc(F)c(Cl)c1)OC[C@H](C(O)C1CC1)NS2(=O)=O (stereo in doubt)
- melting point: 215.8 °C

Structure (SMILES): CC1CCc2c(cn(C)c2C(=O)Nc2ccc(F)c(F)c2)S(=O)(=O)N1 (stereo not drawn)
- melting point: 229.8 °C

Structure (SMILES): CCC(O)[C@H]1COc2c(cn(C)c2C(=O)Nc2ccc(F)c(F)c2)S(=O)(=O)N1 (stereo partly drawn)
- melting point: 214.6 °C
